# Results published in patent publication US8372872B2, “Methods for concomitant treatment of theophylline and febuxostat” (Takeda Pharmaceuticals U.S.A., Inc., priority 2010, dated 2013).
# Key:
# [1] = adults; cited from earlier work
# clinical = conditions: both, human, in vivo, po
# [2] = patients co-administered allopurinol and theophylline; cited from earlier work
# [3] = febuxostat vs placebo regimen, in words
structure (smiles),measurement,setting,value
Cc1nc(-c2ccc(OCC(C)C)c(C#N)c2)sc1C(=O)O [Febuxostat],"maximum observed theophylline concentration (Cmax) and exposure to theophylline (AUC), febuxostat vs placebo",in words,comparable
"Cn1c(=O)c2[nH]cnc2n(C)c1=O [Theophylline, 1,3-dimethyl-7H-purine-2,6-dione]",biological half-life,[1],about 6 hours
same,Tmax,clinical,7 to 9 h
same,Vd/F,clinical,58.2 L
same,half-life,clinical,9.69 h
same,"point estimates for theophylline Cmax, AUC(0-tlqc) and AUC(0-inf)","both, human, in vivo",~100%
same,"estimated mean T1/2, CL/F and Vz/F of theophylline, compared between regimens",[3],generally similar
same,"mean AUC(0-inf) of theophylline, compared between regimens",[3],comparable
Oc1ncnc2[nH]ncc12 [allopurinol],decrease of theophylline clearance,[2],21%
same,increase of theophylline AUC,[2],up to 27%
same,increase of theophylline half-life,[2],approximately 25%
